# Measurements taken from patent US5470714A, “One-step free fatty acid determination method” (Lidak Pharmaceuticals, priority 1993, dated 1995).
# Where a chain is given by its changes, count along the chain named. Like-named read-outs stand apart in the source and are kept apart here.
# T1: ADIFAB (Rattus norvegicus, UniProt P02693)
# T1 construct: acrylodan covalently attached at Lys27 (chemical label, no substitution)
# T1 sequence (P02693 1-132): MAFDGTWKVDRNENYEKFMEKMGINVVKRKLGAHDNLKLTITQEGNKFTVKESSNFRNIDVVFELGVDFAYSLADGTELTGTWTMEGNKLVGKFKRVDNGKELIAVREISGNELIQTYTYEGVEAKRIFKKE
# B1: ADIFAB: Acrylodan derivatized recombinant native protein (I-FABP), labeled at Lys27 (conjugate, UniProt P02693 2-132, looked up)
# Fatty acid-binding protein, …: AFDGTWKVDRNENYEKFMEKMGINVVKRKLGAHDNLKLTITQEGNKFTVKESSNFRNIDVVFELGVDFAYSLADGTELTGTWTMEGNKLVGKFKRVDNGKELIAVREISGNELIQTYTYEGVEAKRIFKKE
# modifications: acrylodan label at Lys27
# B2: Lys27 on I-FABP with danzyl aziridine: Lys27 on I-FABP with danzyl aziridine has been derivatized (conjugate, UniProt P02693 2-132, looked up)
# Fatty acid-binding protein, …: B1 Fatty acid-binding protein, …
# modifications: dansyl aziridine label at Lys27
# notes: Lys27 on I-FABP with danzyl aziridine has been derivatized
# B3: IANBDE derivative: Cys27 mutant of I-FABP (Lys27 to Cys27) labeled with IANBDE (conjugate, UniProt P02693 2-132, looked up, variant K27C)
# Fatty acid-binding protein, …: B1 Fatty acid-binding protein, … with K27C
# modifications: IANBDE (NBD ester) label
# What was measured:
# ADIFAB = molecular target: T1, ADIFAB; assay: Specificity of ADIFAB: effect of potential competitor molecules on ADIFAB fluorescence and on oleic acid binding; conditions: up to maximum concentrations: lysolecithin 100mM, sphingosine 100mM, bilirubin 50mM, leukotriene C4 32mM, 5-HETE 10mM, prostaglandin D2 5mM; from ethanol 0.1% by volume
# Description: ADIFAB is highly specific for long chain FA. […] The interaction between ADIFAB and a variety of molecules that are either formed in association with FA or coexist with FA in plasma and might therefore compete with FA for binding to ADI FAB were examined. The following molecules were investigated up to the maximum concentrations indicated in parenthesis; lysolecithin (100mM), sphingosine (1 00mM), bilirubin (50mM), leukotriene C4 (32mM), (5S)-5- Hydroxy-6,8, 11,14-eicasatetaenoic acid (5-HETE) (10mM), and prostaglandin D2 (5mM). […] (Since these molecules are water insoluble they were added to ADIFAB from ethanol, at 0.1% by volume, which itself causes an Ro increase by about 12% but has no effect on the Kd for oleate binding. )
# [1] = molecular target: ADIFAB (Acrylodan derivatized native rat I-FABP, Lys27) (Rattus norvegicus, UniProt P02693); assay: biochemical; type: binding; conditions: for Kd relative to oleate (fold greater than oleate): normalized to oleate
# Description: In most of the studies FFA was added to ADIFAB, in a buffer (A) consisting of 10 Mm HEPES, 150 Mm NaCI, 5 mM KCI, and 1 mM NaHPO4 at pH 7.4, as the sodium salt of the fatty acid. […] FA bind to most surfaces and values of the total FA concentration ([FAT]) were corrected for FA binding to cuvette and container walls. This binding was determined using trace amounts of […] labeled FA and, separately, ADIFAB florescence to determine the degree of FA loss upon transfer from one container to another. […] To minimize FA binding to surfaces, the monomer concentrations of stock solutions of the Na salts were maintained at pH >9.0 in water, and were warmed to >37° C. just prior to use. The polyunsaturated forms of the FA are subject to oxidation and it was observed that dissociation constants for binding to ADIFAB (Kd) were considerably greater for the oxidized FA. Care was taken to reduce the exposure of the FA salts to oxygen (all handling was carried out under Argon) and to store them at -20° C.
# The concentrations of FA in the aqueous phase (FFA) and FA bound to ADIFAB ([FAb ]) were determined from the ratio of fluorescence emission intensities at 432 and 505 nm (R). The values FFA and [FAb ]were related to the ratio of intensities essentially by the method of Grynkiewicz et. al. (Grynkiewicz, G., Poenie, M., & Tsien, R. Y. (1985) J. Biol. Chem. 260, 3440-3450), according to which:
# [FAb ]=[ADIFABtotal ]Q(fr)/(1-fr+FRQ) FR
# are the ADIFAB intensities with zero and saturating concentrations of FFA, Ro is the intensity ratio in the absence of FFA and Rmax is the value when ADIFAB is saturated.
# Because of the limiting solubility of long chain FA in aqueous solution Rmax and Q cannot. in general, be determined directly. To determine Rmax and Q, ADIFAB was titrated with lauric acid (12:0) whose high CMC allowed maximum R values (~10-11) to be measured that were considerably greater than with longer chain FA. From this titration a linear correlation was found between Q and R. Using Q, R pairs predicted by this relationship, a two parameter (Kd and Rmax) least squares analysis of each FA was done using the equation for equilibrium binding;
# 1/[FAb ]=(Kd/[ADIFAB])/FFA+1/[ADIFAB] (3)
# Optimal Q and Rmax values obtained in this analysis were in the range 17-22 and 10 and 13, respectively, with average values of 19.5 and 11.5. Final Kd values for each FA were then determined by least squares analysis of equation (3) with Q and Rmax fixed at 19.5 and 11.5, respectively.
# Fluorescence measurements to monitor Acrylodan fluorescence in various solvents, to monitor adduct formation, and to obtain complete spectra were carried out using an SLM 8000C fluorometer. Measurements of the 505/432 intensity ratios (R values) used to monitor the FFA titrations of ADIFAB were done with either the SLM 8000C or a Perkin-Elmer MPF-2A fluorometer.
# ADIFAB dose response to FFA and FFA aggregate formation was measured. The ratio of fluorescent intensities at emission wavelengths of 505/432 nm were measured as a function of added Na salts of several FFA. Resulting data are depicted graphically in FIGS. 6A, 6B and 6C. Conditions were similar to those used in FIG. 3 except that 100mM EGTA was used in obtaining the data depicted in FIGS. 6A and 6B, while the data depicted in FIG. 6C was obtained using 1 mM CaCl2. Measured R values were used to determine FFA and [FFAb]using equations (1) and (2). The solid curves through the data of FIGS. 6A and 6C represent best fits of equation (3) obtained using a non-linear least squares algorithm. Aggregate formation was detected by measuring 90° light scattering from FFA in the buffer of FIG. 3 containing no added calcium and titrated with the Na salts of the FFA as described above, see FIG. 6B. The smoothed curves through the data, intended to guide-the-eye, indicate that aggregate formation, as detected by a sharp increase in light scattering, is approximately coincident with the maximum R value observed in the experiment related to FIG. 6A. […]
# [2] = Fluorescence response of fluorescent-FABP probes to fatty acid binding; type: biochemical
# Source text: Principles and exemplary methods for constructing probes as described and defined herein and methods for determining FFA levels are described in detail below. Using these principles fourteen different fluorescent-FABP derivatives have been constructed. This has been done using 3 different native FABPs (rat intestine (I-FABP), human adipocyte (A-FABP), and human heart (H-FABP)) plus 4 site-specific mutants of two of these (I-FABP, (Thr83Cys83, Thr81Cys81, Lys27Cys27 and H-FABP, Thr27Lys27), and these proteins have been derivatized with 4 different fluorophores (acrylodan, danzyl aziridine, 4-[N-[(2-iodoacetoxy)ethyl]-N-methylamino]-7-nitrobenz-2-oxa1,3-diazole ester (IANBDE), 4-[N-[(2-iodoacetoxy)ethyl]-N-methylamino]-7-nitrobenz-2-oxa-1,3-diazole these derivatives can serve as FFA probes, to some degree. To date, however, ADIFAB remains the one that has optimal properties for current applications. Obviously, by occupying, partially, the binding site with a fluorophore, FA must compete for its site and therefore the FA binding constant for the FABP may be altered from the native protein. This is indeed the case for ADIFAB for which the Kd is about 10 fold greater than for the native protein. So long as FA can bind, however, the derivatized molecule can still function as a FFA probe and so long as the probe's dynamic range is sufficient (as it is for ADIFAB, IANBDE and IANBDA) then FFA levels over a wide range, including those that are physiologic, can be measured.
# The Cys27 mutant of I-FABP (Lys27 to Cys27) with acrylodan, IANBDE and IANBDA have also been labeled using the technique described. […] This is the behavior predicted from the construction principles set forth herein, and reflects the shorter tethering arm to Cys27 as compared to Lys27 which prevents the deeper insertion into the binding site that is observed in the Lys27 derivative. […] Thus, those skilled in the art can with considerable confidence predict whether protein modifications and/or choice of label will result in a FFA responsive probe.
# Site-directed mutagenesis was used to introduce a cysteine residue at positions 82 or 84, in place of the threonine residues that are normally at this position. Mutagenesis was carried out by annealing a synthetic prirner with a single mismatched base to the above derived expression vector. The primer was extended and ligated in vitro, and the resulting heteroduplex was used to transfect the host strain. The transfected host was screened for the mutated DNA by hybridization with the mutating oligonucleotide. Mutated plasmid DNA was isolated, retransformed into the host strain, and its structure confirmed by sequencing the recombinant DNA in regions defined by probes flanking the mutated region. This modified protein was expressed in the same system and purified by the same methods as for the native protein. Typical yields of purified protein were approximately 50 mg/liter cell culture. The mutated I-FABP protein was fluorescently derivatized by inserting a fluorescent group (which reacts specifically with free SH groups) at the newly created cysteine residue. The cysteine residue was inserted at positions 82 (replacing a threonine residue) and/or at residue 84 (also a threonine residue) since both these positions face outward from the FFA binding pocket but are in close proximity to the tryptophan at position 83 (about 3.5Å lateral separation along the b strand and about 10Å vertical separation between the centers of the tryptophan and fluorescent residues). […] Thus, either the direct emission of the fluorescent group and/or the rate of resonance energy transfer between Trp83 and the fluorescent group was postulated to change. In a non-limiting prior specific example, the dansyl derivative ACRYLODAN®(6-acryloly-2dimethylamenonaphthalene) was used to modify the mutated FABP and this probe was designated FAD508.
# ADIFAB dose response to FFA and FFA aggregate formation was measured. […]
# [3] = FA-ADIFAB Dissociation Constants, Kd, no added calcium, FIG. 6A, buffer A pH 7.4
molecule,measurement,setting,value
CCCCCCCCCCCCC/C=C/[C@@H](O)[C@@H](N)CO [sphingosine],change in ADIFAB fluorescence by the molecule itself,ADIFAB,"none of these molecules, either themselves cause a change in ADIFAB fluorescence"
same,displacement of oleic acid binding to ADIFAB,ADIFAB,nor do they displace oleic acid binding to ADIFAB
CCCCC/C=C\C\C=C/C=C/C=C/[C@@H](SC[C@H](NC(=O)CC[C@H](N)C(=O)O)C(=O)NCC(=O)O)[C@@H](O)CCCC(=O)O [leukotriene C4],change in ADIFAB fluorescence by the molecule itself,ADIFAB,"none of these molecules, either themselves cause a change in ADIFAB fluorescence"
same,displacement of oleic acid binding to ADIFAB,ADIFAB,nor do they displace oleic acid binding to ADIFAB
C=CC1=C(C)/C(=C/c2[nH]c(Cc3[nH]c(/C=C4\NC(=O)C(C)=C4C=C)c(C)c3CCC(=O)O)c(CCC(=O)O)c2C)NC1=O [bilirubin],change in ADIFAB fluorescence by the molecule itself,ADIFAB,"none of these molecules, either themselves cause a change in ADIFAB fluorescence"
same,displacement of oleic acid binding to ADIFAB,ADIFAB,nor do they displace oleic acid binding to ADIFAB
"CC/C=C\C/C=C\C/C=C\CCCCCCCC(=O)O [LINOLENATE, linolenate]",ADIFAB sensitivity to FFA levels (lowest detectable level),[1],about 20 nM
same,Kd,[1]; [3],2500 ± 100 nM
same,Kd relative to oleate (fold greater than oleate),[1],~8.9 fold
lysolecithin,change in ADIFAB fluorescence by the molecule itself,ADIFAB,"none of these molecules, either themselves cause a change in ADIFAB fluorescence"
same,displacement of oleic acid binding to ADIFAB,ADIFAB,nor do they displace oleic acid binding to ADIFAB
"CCCCC/C=C\C/C=C\C/C=C\C/C=C\CCCC(=O)O [ARACHIDONATE, arachidonate]",Kd,[1]; [3],1630 ± 30 nM
same,Kd,"[1]; Kd in the presence of calcium, 1 mM calcium",1670 nM
same,Kd relative to oleate (fold greater than oleate),[1],~5.8 fold
CCCCC[C@H](O)/C=C/[C@H]1C(=O)C[C@H](O)[C@@H]1C/C=C\CCCC(=O)O [prostaglandin D2],change in ADIFAB fluorescence by the molecule itself,ADIFAB,"none of these molecules, either themselves cause a change in ADIFAB fluorescence"
same,displacement of oleic acid binding to ADIFAB,ADIFAB,nor do they displace oleic acid binding to ADIFAB
CCCCCCCCCCCC(=O)O [laurate],Kd,"[1]; laurate (12:0), binding detectable but considerably weaker, read-out: Kd (shorter chain FA, bound)",> 200000 nM
"CCCCC/C=C\C/C=C\C/C=C\C=C\[C@@H](O)CCCC(=O)O [5-HETE, (5S)-5-Hydroxy-6,8, 11,14-eicasatetaenoic acid]",change in ADIFAB fluorescence by the molecule itself,ADIFAB,"none of these molecules, either themselves cause a change in ADIFAB fluorescence"
same,displacement of oleic acid binding to ADIFAB,ADIFAB,nor do they displace oleic acid binding to ADIFAB
"CCCCC/C=C\C/C=C\CCCCCCCC(=O)O [LINOLEATE, linoleate]",Kd,[1]; [3],970 ± 20 nM
same,Kd relative to oleate (fold greater than oleate),[1],~3.5 fold
B1,Kd of FA relative to the native protein (fold greater),[2]; ADIFAB versus native I-FABP,about 10 fold
same,increase in the 505/432 emission ratio on addition of FFA,"[2]; FIG. 6A, up to",≤ 25 fold
B2,"responsiveness of the probe to FA binding, in words",[2],exhibits an increase in 450 nm fluorescence upon FA binding
B3,"responsiveness of the probe to FA binding, in words",[2],among the most sensitive
same,reduction in intensity at 550 nm,"[2]; with 1 mM oleate, I-FABP Cys27 mutant",60%
